Experiments:
[1] = compared to previously-known omeprazole form B; cited from earlier work
[2] = Stability testing of omeprazole samples under stress/accelerated aging, evaluated by absorbance (Ph Eur); type: physicochemical; settings: omeprazole form C obtained by the disclosed process; no numerical data printed
Method: The stability of omeprazole samples was determined by a standard procedure for testing the substances in pharmaceutical industry (CPMP/ICH/2736/99). […] Determination of absorbance, measured according to Ph Eur method (PhEur 3 Suppl 2000), is used as the criterion for evaluation of the sample quality during stability testing.

Row | SMILES | hygroscopicity [1] | photostability [1] | thermodynamic stability [1] | stability according to the standard protocol for characterization of stability of a pharmaceutical active substance [2]
1 | COc1ccc2[nH]c([S+]([O-])Cc3ncc(C)c(OC)c3C)nc2c1 (stereo not shown) [omeprazole form A, 5-methoxy-2-[[(4-methoxy-3,5-dimethyl-2-pyridinyl)methyl]sulfinyl]-1H-benzimidazole] | better | better | better | –
2 | COc1ccc2[nH]c([S+]([O-])Cc3ncc(C)c(OC)c3C)nc2c1 (stereo not shown) [omeprazole form C, 5-methoxy-2-[[(4-methoxy-3,5-dimethyl-2-pyridinyl)methyl]sulfinyl]-1H-benzimidazole] | – | – | – | stable according to the standard protocol
